Measured values as given in US8835462B2, “Macrocyclic picolinamides as fungicides” (Dow AgroSciences LLC, priority 2012, dated 2014).
Read-outs that look alike come from different tables or passages of the source.

What was measured:
Puccinia triticina [1] = experiment: Fungicide mobility (dropline mobility test), wheat brown rust (PUCCRT); assay type: in vivo; settings: 1 ug/leaf, disease-free zone as percent of distance from marked line to leaf tip; for Dropline Mobility Test PUCCRT 1 DPM: 1 Day Protectant Mobility; for Dropline Mobility Test PUCCRT 3 DCM: 3 Day Curative Mobility
Description: Evaluation of Fungicide Mobility: Wheat Brown Rust (Puccinia Triticina; Synonym: Puccinia recondita f. sp. Tritici; Bayer Code PUCCRT):
“Yuma” wheat seedlings were used in the test. One mg of compound was dissolved in 9 μl of EC blank (emulsifiable concentrate) and 500 μl of acetone. Acetone was then evaporated overnight by leaving the vial open in a fume hood. Two milliliters of water containing 110 ppm Triton X-100 was added to each vial to prepare application solutions. A […] drop of formulated material was applied to a marked line on the adaxial surface 5 cm from the leaf tip of the primary leaves. The primary leaves were kept in a horizontal position. Each treatment had 6 replicates. Plants were inoculated with PUCCRT 1-day after (1DPM) or 3-day prior to (3DCM) compound applications. When rust was fully expressed on primary leaves on control plants, the zone of treated leaves that was disease-free in the acropetal direction was measured with a ruler and converted to percent of the distance from marked line to leaf tip.

Puccinia triticina [2] = experiment: Wheat brown rust (PUCCRT) fungicidal activity on wheat seedlings; assay type: in vivo
Description: Technical grades of materials were dissolved in acetone, which were then mixed with nine volumes of water containing 110 ppm Triton X-100. The fungicide solutions were applied onto wheat seedlings using an automated booth sprayer to run-off. All sprayed plants were allowed to air dry prior to further handling. Wheat plants (variety Yuma) were grown from seed in a greenhouse in 50% mineral soil/50% soil-less Metro mix until the first leaf was fully emerged, with 7-10 seedlings per pot. These plants were inoculated with an aqueous spore suspension of Septoria tritici either prior to or after fungicide treatments. After inoculation the plants were kept in 100% relative humidity (one day in a dark dew chamber followed by two to three days in a lighted dew chamber at 20° C.) to permit spores to germinate and infect the leaf. The plants were then transferred to a greenhouse set at 20° C. for disease to develop. When disease symptoms were fully expressed on the 1st leaves of untreated plants, infection levels were assessed on a scale of 0 to 100 percent disease severity. Percent disease control was calculated using the ratio of disease severity on treated plants relative to untreated plants. Evaluation of Fungicidal Activity: Wheat Brown Rust (Puccinia triticina; Synonym: Puccinia recondita f. sp. tritici; Bayer Code PUCCRT) Wheat plants (variety Yuma) were grown from seed in a greenhouse in 50% mineral soil/50% soil-less Metro mix until the first leaf was fully emerged, with 7-10 seedlings per pot. These plants were inoculated with an aqueous spore suspension of Puccinia triticina either prior to or after fungicide treatments. After inoculation the plants were kept in a dark dew room at 22° C. with 100% relative humidity overnight to permit spores to germinate and infect the leaf. The plants were then transferred to a greenhouse set at 24° C. for disease to develop. Fungicide formulation, application and disease assessment followed the procedures as described in the Example A.

[3] = test system: Mycosphaerella graminicola; Anamorph: Septoria tritici; experiment: Leaf blotch of wheat (SEPTTR) fungicidal activity on wheat seedlings; assay type: in vivo; settings: Zymoseptoria tritici
Description: Evaluation of Fungicidal Activity: Leaf Blotch of Wheat (Mycosphaerella Graminicola; Anamorph: Septoria tritici; Bayer Code […]) Technical grades of materials were dissolved in acetone, which were then mixed with nine volumes of water containing 110 ppm Triton X-100. The fungicide solutions were applied onto wheat seedlings using an automated booth sprayer to run-off. All sprayed plants were allowed to air dry prior to further handling. Wheat plants (variety Yuma) were grown from seed in a greenhouse in 50% mineral soil/50% soil-less Metro mix until the first leaf was fully emerged, with 7-10 seedlings per pot. These plants were inoculated with an aqueous spore suspension of Septoria tritici either prior to or after fungicide treatments. After inoculation the plants were kept in 100% relative humidity (one day in a dark dew chamber followed by two to three days in a lighted dew chamber at 20° C.) to permit spores to germinate and infect the leaf. The plants were then transferred to a greenhouse set at 20° C. for disease to develop. When disease symptoms were fully expressed on the 1st leaves of untreated plants, infection levels were assessed on a scale of 0 to 100 percent disease severity. Percent disease control was calculated using the ratio of disease severity on treated plants relative to untreated plants.

[4] = 24 h, 1 Day Protectant, read-out: Disease Control PUCCRT 1 DP
[5] = 72 h, 3 Day Curative, read-out: Disease Control PUCCRT 3 DC
[6] = 24 h, 1 Day Protectant, read-out: Disease Control SEPTTR 1 DP
[7] = 72 h, 3 Day Curative, read-out: Disease Control SEPTTR 3 DC

melting point | SMILES | Dropline Mobility Test PUCCRT 1 DPM (Puccinia triticina [1]) | Dropline Mobility Test PUCCRT 3 DCM (Puccinia triticina [1]) | pest or weed control at 100 ppm (Puccinia triticina [2]; [4]) | pest or weed control at 100 ppm (Puccinia triticina [2]; [5]) | pest or weed control at 100 ppm [3, 6] | pest or weed control at 100 ppm [3, 7]
66 to 70 °C | COc1ccnc(C(=O)N[C@H]2COC[C@H](Cc3ccccc3)[C@@H](OC(=O)C(C)C)[C@H](C)OC2=O)c1O [Compound 1] | B (More than 0-Less than 80) | B (More than 0-Less than 80) | 80 to 100% | 80 to 100% | 80 to 100% | 80 to 100%
96 to 104 °C | C=C(C)CO[C@@H]1[C@@H](Cc2ccccc2)COC[C@H](NC(=O)c2nccc(OC)c2O)C(=O)O[C@H]1C [Compound 6] | – | – | 80 to 100% | 80 to 100% | 80 to 100% | 0 to 80%
102 to 104 °C | CCCO[C@@H]1[C@@H](Cc2ccccc2)COC[C@H](NC(=O)c2nccc(OC)c2O)C(=O)O[C@H]1C [Compound 17] | B (More than 0-Less than 80) | B (More than 0-Less than 80) | 80 to 100% | 80 to 100% | 80 to 100% | 80 to 100%
52 to 56 °C | CCCC(C)O[C@@H]1[C@@H](Cc2ccccc2)COC[C@H](NC(=O)c2nccc(OC)c2O)C(=O)O[C@H]1C (stereo partly shown) [Compound 19] | B (More than 0-Less than 80) | – | 80 to 100% | 80 to 100% | 80 to 100% | 80 to 100%
51 to 56 °C | CCCCCO[C@@H]1[C@@H](Cc2ccccc2)COC[C@H](NC(=O)c2nccc(OC)c2O)C(=O)O[C@H]1C [Compound 21] | B (More than 0-Less than 80) | – | 80 to 100% | 0 to 80% | 0 to 80% | 0 to 80%
57 to 70 °C | COc1ccnc(C(=O)N[C@H]2COC[C@H](Cc3ccccc3)[C@@H](OC)[C@H](C)OC2=O)c1O [Compound 32] | B (More than 0-Less than 80) | B (More than 0-Less than 80) | 80 to 100% | 0 to 80% | 0 to 80% | 80 to 100%
62 to 67 °C | C[C@@H]1OC(=O)[C@@H](NC(=O)OC(C)(C)C)COC[C@H](Cc2ccccc2)[C@H]1O [Compound 48, tert-Butyl-(3S,7S,8R,9S)-7-benzyl-8-hydroxy-9-methyl-2-oxo-1,5-dioxonan-3-ylcarbamate] | – | – | – | – | – | –
142 to 143 °C | C[C@@H]1OC(=O)[C@@H](NC(=O)OC(C)(C)C)COC[C@H](Cc2ccccc2)[C@H]1OCCC(=O)N(C)C [Compound 53, tert-butyl ((3S,7S,8R,9S)-7-benzyl-8-(3-(dimethylamino)-3-oxopropoxy)-9-methyl-2-oxo-1,5-dioxonan-3-yl)carbamate] | – | – | – | – | – | –
54 to 63 °C | C[C@@H]1OC(=O)[C@@H](NC(=O)OC(C)(C)C)COC[C@H](Cc2ccccc2)[C@H]1OC(=O)c1ccccc1 [Compound 61] | – | – | – | – | – | –
72 to 85 °C | C[C@@H]1OC(=O)[C@@H](NC(=O)OC(C)(C)C)COC[C@H](Cc2ccccc2)[C@H]1OC(=O)C1CC1 [Compound 62] | – | – | – | – | – | –
88 to 90 °C | C=CCO[C@@H]1[C@@H](Cc2ccccc2)COC[C@H](N(C(=O)OC(C)(C)C)C(=O)OC(C)(C)C)C(=O)O[C@H]1C [Compound 65] | – | – | – | – | – | –
131 to 133 °C | C[C@@H]1OC(=O)[C@@H](N(C(=O)OC(C)(C)C)C(=O)OC(C)(C)C)COC[C@H](Cc2ccccc2)[C@H]1OC/C=C/C(F)(F)F [Compound 66] | – | – | – | – | – | –
80 to 83 °C | C/C=C/C(C)O[C@@H]1[C@@H](Cc2ccccc2)COC[C@H](N(C(=O)OC(C)(C)C)C(=O)OC(C)(C)C)C(=O)O[C@H]1C (stereo partly shown) [Compound 67] | – | – | – | – | – | –
98 to 100 °C | CCCO[C@@H]1[C@@H](Cc2ccccc2)COC[C@H](N(C(=O)OC(C)(C)C)C(=O)OC(C)(C)C)C(=O)O[C@H]1C [Compound 68] | – | – | – | – | – | –
100 to 102 °C | C[C@@H]1OC(=O)[C@@H](N(C(=O)OC(C)(C)C)C(=O)OC(C)(C)C)COC[C@H](Cc2ccccc2)[C@H]1OCCCC(F)(F)F [Compound 69] | – | – | – | – | – | –
127 to 129 °C | CC/C=C/CO[C@@H]1[C@@H](Cc2ccccc2)COC[C@H](N(C(=O)OC(C)(C)C)C(=O)OC(C)(C)C)C(=O)O[C@H]1C [Compound 71] | – | – | – | – | – | –
94 to 97 °C | CCCCCO[C@@H]1[C@@H](Cc2ccccc2)COC[C@H](N(C(=O)OC(C)(C)C)C(=O)OC(C)(C)C)C(=O)O[C@H]1C [Compound 72] | – | – | – | – | – | –

SMILES | melting point | Dropline Mobility Test PUCCRT 1 DPM (Puccinia triticina [1]) | Dropline Mobility Test PUCCRT 3 DCM (Puccinia triticina [1]) | pest or weed control at 100 ppm (Puccinia triticina [2]; [4]) | pest or weed control at 100 ppm (Puccinia triticina [2]; [5]) | pest or weed control at 100 ppm [3, 6] | pest or weed control at 100 ppm [3, 7]
COc1ccnc(C(=O)N[C@H]2COC[C@H](CC3CCCCC3)[C@@H](OCC(C)C)[C@H](C)OC2=O)c1O [Compound 4, N-((3S,7S,8R,9S)-7-(cyclohexylmethyl)-8-isobutoxy-9-methyl-2-oxo-1,5-dioxonan-3-yl)-3-hydroxy-4-methoxypicolinamide] | 89 to 92 °C | – | – | 80 to 100% | 80 to 100% | 80 to 100% | 80 to 100%
COC(=O)/C=C/O[C@@H]1[C@@H](Cc2ccccc2)COC[C@H](NC(=O)OC(C)(C)C)C(=O)O[C@H]1C [Compound 49, (E)-methyl 3-(((3S,6S,7R,8S)-8-benzyl-3-((tert-butoxycarbonyl)amino)-6-methyl-4-oxo-1,5-dioxonan-7-yl)oxy)acrylate] | 128 to 129 °C | – | – | – | – | – | –
C[C@@H]1OC(=O)[C@@H](NC(=O)OC(C)(C)C)COC[C@H](Cc2ccccc2)[C@H]1O/C=C/C(=O)OCc1ccccc1 [Compound 51, (E)-benzyl 3-(((3S,6S,7R,8S)-8-benzyl-3-((tert-butoxycarbonyl)amino)-6-methyl-4-oxo-1,5-dioxonan-7-yl)oxy)acrylate] | 182 to 185 °C | – | – | – | – | – | –
C[C@@H]1OC(=O)[C@@H](N(C(=O)OC(C)(C)C)C(=O)OC(C)(C)C)COC[C@H](Cc2ccccc2)[C@H]1O [Compound 57, tert-butyl N-[(3S,7S,8R,9S)-7-benzyl-8-hydroxy-9-methyl-2-oxo-1,5-dioxonan-3-yl]-N-tert-butoxycarbonylcarbamate] | 139 to 141 °C | – | – | – | – | – | –
C=C(C)CO[C@@H]1[C@@H](Cc2ccccc2)COC[C@H](N(C(=O)OC(C)(C)C)C(=O)OC(C)(C)C)C(=O)O[C@H]1C [Compound 82, tert-butyl N-[(3S,7S,8R,9S)-7-benzyl-9-methyl-8-(2-methylallyloxy)-2-oxo-1,5-dioxonan-3-yl]-N-tert-butoxycarbonylcarbamate] | 109 to 110 °C | – | – | – | – | – | –
